Biological target: T1, human Nav1.8 (Homo sapiens, UniProt Q9Y5Y9)
T1 construct: expressed in transfected cells; host or cells: HEK293 (HEK293-Nav1.8)
Test: Nav1.8 sodium channels assay, QPatch 48 HTX electrophysiology in HEK293-Nav1.8 cells
Type: cell-based
Settings: Table 1; HEK293-Nav1.8, QPatch 48 HTX, half inactivation state voltage protocol (V1/2); single run or average of two or more runs; read-out: Nav1.8 pIC50 (converted)
In short: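 IC50 came from 6-8 point curves of P2 current amplitude, normalized to baseline and a positive reference, and corrected for run-down using vehicle-only wells. Automated patch clamp used HEK293-Nav1.8 (with Navβ1 and TREK1) at pH 7.4 outside and CsF-based solution inside. An 8 s inactivating step at −46 mV preceded the 0 mV test pulse, repeated at 0.07 Hz.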

T1 sequence (Q9Y5Y9 whole entry): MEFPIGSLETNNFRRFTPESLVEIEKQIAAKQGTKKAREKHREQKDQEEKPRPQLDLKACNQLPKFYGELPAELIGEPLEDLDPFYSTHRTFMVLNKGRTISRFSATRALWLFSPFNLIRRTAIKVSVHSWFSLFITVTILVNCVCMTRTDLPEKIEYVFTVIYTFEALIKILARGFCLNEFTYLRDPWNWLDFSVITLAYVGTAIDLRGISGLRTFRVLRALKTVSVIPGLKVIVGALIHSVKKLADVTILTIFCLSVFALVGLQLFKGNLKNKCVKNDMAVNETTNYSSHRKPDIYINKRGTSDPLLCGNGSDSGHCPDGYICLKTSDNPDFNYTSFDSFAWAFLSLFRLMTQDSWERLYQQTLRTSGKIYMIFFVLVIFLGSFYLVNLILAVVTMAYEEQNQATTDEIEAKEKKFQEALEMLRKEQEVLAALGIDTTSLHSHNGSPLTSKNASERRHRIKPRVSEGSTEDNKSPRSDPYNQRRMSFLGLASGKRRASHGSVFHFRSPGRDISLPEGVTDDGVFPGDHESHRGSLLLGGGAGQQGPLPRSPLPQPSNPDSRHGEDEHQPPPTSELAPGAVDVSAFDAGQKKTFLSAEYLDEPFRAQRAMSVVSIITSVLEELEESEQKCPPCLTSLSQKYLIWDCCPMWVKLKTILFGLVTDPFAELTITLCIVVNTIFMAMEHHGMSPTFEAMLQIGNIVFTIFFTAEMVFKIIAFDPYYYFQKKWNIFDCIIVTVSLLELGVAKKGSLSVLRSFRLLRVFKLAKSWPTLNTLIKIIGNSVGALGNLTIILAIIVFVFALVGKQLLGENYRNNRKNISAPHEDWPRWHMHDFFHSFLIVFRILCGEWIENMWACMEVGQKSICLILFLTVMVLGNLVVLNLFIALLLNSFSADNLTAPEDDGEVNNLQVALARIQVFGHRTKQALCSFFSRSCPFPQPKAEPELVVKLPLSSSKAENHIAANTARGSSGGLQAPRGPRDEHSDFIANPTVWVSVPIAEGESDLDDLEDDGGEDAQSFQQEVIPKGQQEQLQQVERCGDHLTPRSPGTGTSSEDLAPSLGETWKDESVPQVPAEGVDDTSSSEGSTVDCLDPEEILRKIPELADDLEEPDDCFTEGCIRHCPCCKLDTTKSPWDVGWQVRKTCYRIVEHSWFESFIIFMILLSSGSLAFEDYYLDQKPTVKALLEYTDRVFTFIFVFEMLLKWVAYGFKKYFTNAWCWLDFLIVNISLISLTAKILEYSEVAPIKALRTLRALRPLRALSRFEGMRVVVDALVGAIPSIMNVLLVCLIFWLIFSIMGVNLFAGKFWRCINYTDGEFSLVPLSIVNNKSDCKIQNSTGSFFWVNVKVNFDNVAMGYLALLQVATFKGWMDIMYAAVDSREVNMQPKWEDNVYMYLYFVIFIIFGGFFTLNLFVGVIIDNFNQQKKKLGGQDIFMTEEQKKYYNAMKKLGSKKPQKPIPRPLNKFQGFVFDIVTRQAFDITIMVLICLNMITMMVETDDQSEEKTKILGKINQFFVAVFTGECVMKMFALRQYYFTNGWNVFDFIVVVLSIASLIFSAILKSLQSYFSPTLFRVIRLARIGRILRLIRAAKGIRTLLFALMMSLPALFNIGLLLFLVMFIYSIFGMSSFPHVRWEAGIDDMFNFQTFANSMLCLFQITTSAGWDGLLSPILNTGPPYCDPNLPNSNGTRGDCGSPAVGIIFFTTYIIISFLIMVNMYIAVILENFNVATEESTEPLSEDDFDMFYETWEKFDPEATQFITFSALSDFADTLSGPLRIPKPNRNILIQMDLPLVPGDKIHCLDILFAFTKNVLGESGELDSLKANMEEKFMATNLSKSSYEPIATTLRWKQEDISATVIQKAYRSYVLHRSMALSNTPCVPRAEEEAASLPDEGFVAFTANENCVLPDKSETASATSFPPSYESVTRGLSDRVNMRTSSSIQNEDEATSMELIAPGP
T1 sequence (Q07699 19-218 partner): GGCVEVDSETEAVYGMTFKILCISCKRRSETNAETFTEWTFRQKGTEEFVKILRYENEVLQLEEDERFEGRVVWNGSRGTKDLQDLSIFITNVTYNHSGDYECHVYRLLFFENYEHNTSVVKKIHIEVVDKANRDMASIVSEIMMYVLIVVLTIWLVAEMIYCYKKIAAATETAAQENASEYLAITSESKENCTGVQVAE

SMILES	IC50 [µM]
Cc1cc(F)ccc1N1c2cc(C(F)(F)F)ccc2C(=O)N(c2ccc(=O)[nH]c2)C1C (centres unmarked) [drawing 275, 1-(4-fluoro-2-methylphenyl)-2-methyl-3-(6-oxo-1,6-dihydropyridin-3-yl)-7-(trifluoromethyl)-2,3-dihydroquinazolin-4(1H)-one]	1.26
O=C1c2ccc(C(F)(F)F)cc2N(c2ccc(F)cc2Cl)CN1c1ccc(=O)[nH]c1 [drawing 276, 1-(2-chloro-4-fluorophenyl)-3-(6-oxo-1,6-dihydropyridin-3-yl)-7-(trifluoromethyl)-2,3-dihydroquinazolin-4(1H)-one]	0.501
O=C1c2ccc(C(F)(F)F)cc2N(c2ccc(F)cc2OCCO)CN1c1ccc(=O)[nH]c1 [drawing 277, 1-(4-fluoro-2-(2-hydroxyethoxy)phenyl)-3-(6-oxo-1,6-dihydropyridin-3-yl)-7-(trifluoromethyl)-2,3-dihydroquinazolin-4(1H)-one]	6.31
O=C1c2ccc(C(F)(F)F)cc2N(c2ccc(F)cc2F)CN1c1ccc(=O)[nH]c1 [drawing 278, 1-(2,4-difluorophenyl)-3-(6-oxo-1,6-dihydropyridin-3-yl)-7-(trifluoromethyl)-2,3-dihydroquinazolin-4(1H)-one]	0.794
Cc1cc(F)ccc1N1CN(c2ccc(=O)[nH]c2)C(=O)c2ccc(C#N)cc21 [drawing 279, 1-(4-fluoro-2-methylphenyl)-4-oxo-3-(6-oxo-1,6-dihydropyridin-3-yl)-1,2,3,4-tetrahydroquinazoline-7-carbonitrile]	1.58
CCc1cc(F)ccc1N1CN(c2ccc(=O)[nH]c2)C(=O)c2ccc(C(F)(F)F)cc21 [drawing 280, 1-(2-ethyl-4-fluorophenyl)-3-(6-oxo-1,6-dihydropyridin-3-yl)-7-(trifluoromethyl)-2,3-dihydroquinazolin-4(1H)-one]	0.251
COc1cc(F)ccc1N1CN(c2ccc(=O)[nH]c2)C(=O)c2c1cccc2C(F)(F)F [drawing 281, 1-(4-fluoro-2-methoxyphenyl)-3-(6-oxo-1,6-dihydropyridin-3-yl)-5-(trifluoromethyl)-2,3-dihydroquinazolin-4(1H)-one]	6.31
Cc1cc(F)ccc1N1CN(c2ccc(=O)[nH]c2)C(=O)c2ccc(C(F)(F)F)c(Cl)c21 [drawing 282, 8-chloro-1-(4-fluoro-2-methylphenyl)-3-(6-oxo-1,6-dihydropyridin-3-yl)-7-(trifluoromethyl)-2,3-dihydroquinazolin-4(1H)-one]	6.31
Cc1cc(Br)ccc1N1CN(c2ccc(=O)[nH]c2)C(=O)c2ccc(C(F)(F)F)cc21 [drawing 283, 1-(4-bromo-2-methylphenyl)-3-(6-oxo-1,6-dihydropyridin-3-yl)-7-(trifluoromethyl)-2,3-dihydroquinazolin-4(1H)-one]	0.316
Cc1cc(F)ccc1N1CN(c2ccc(=O)[nH]c2)C(=O)c2ccc(C(F)(F)F)c(C)c21 [drawing 284, 1-(4-fluoro-2-methylphenyl)-8-methyl-3-(6-oxo-1,6-dihydropyridin-3-yl)-7-(trifluoromethyl)-2,3-dihydroquinazolin-4(1H)-one]	6.31
Cc1[nH]c(=O)ccc1N1CN(c2ccc(F)cc2)c2cc(C(F)(F)F)ccc2C1=O [drawing 285, 1-(4-fluorophenyl)-3-(2-methyl-6-oxo-1,6-dihydropyridin-3-yl)-7-(trifluoromethyl)-2,3-dihydroquinazolin-4(1H)-one]	0.126
Cc1cc(F)ccc1N1CN(c2ccc(=O)[nH]c2C)C(=O)c2cc(C(F)(F)F)ccc21 [drawing 286, 1-(4-fluoro-2-methylphenyl)-3-(2-methyl-6-oxo-1,6-dihydropyridin-3-yl)-6-(trifluoromethyl)-2,3-dihydroquinazolin-4(1H)-one]	0.0158
Cc1cc(C#N)ccc1N1CN(c2ccc(=O)[nH]c2C)C(=O)c2ccc(C(F)(F)F)cc21 [drawing 287, 3-methyl-4-(3-(2-methyl-6-oxo-1,6-dihydropyridin-3-yl)-4-oxo-7-(trifluoromethyl)-3,4-dihydroquinazolin-1(2H)-yl)benzonitrile]	0.0631
Cc1cc(F)ccc1N1CN(c2ccc(=O)[nH]c2C)C(=O)c2ccc(C(F)(F)F)nc21 [drawing 288, 1-(4-fluoro-2-methylphenyl)-3-(2-methyl-6-oxo-1,6-dihydropyridin-3-yl)-7-(trifluoromethyl)-2,3-dihydropyrido[2,3-d]pyrimidin-4(1H)-one]	0.251

Other lines, results leading:

IC50 [µM]	SMILES
2.51	Cc1ncccc1N1CN(c2ccc(=O)[nH]c2C)C(=O)c2ccc(C(F)(F)F)cc21 [drawing 289, 3-(2-methyl-6-oxo-1,6-dihydropyridin-3-yl)-1-(2-methylpyridin-3-yl)-7-(trifluoromethyl)-2,3-dihydroquinazolin-4(1H)-one]
0.00631	Cc1[nH]c(=O)ccc1N1CN(c2ccc(F)cc2C(C)C)c2cc(C(F)(F)F)ccc2C1=O [drawing 290, 1-(4-fluoro-2-isopropylphenyl)-3-(2-methyl-6-oxo-1,6-dihydropyridin-3-yl)-7-(trifluoromethyl)-2,3-dihydroquinazolin-4(1H)-one]
0.02	CCc1[nH]c(=O)ccc1N1CN(c2ccc(F)cc2C)c2cc(C(F)(F)F)ccc2C1=O [drawing 291, 3-(2-ethyl-6-oxo-1,6-dihydropyridin-3-yl)-1-(4-fluoro-2-methylphenyl)-7-(trifluoromethyl)-2,3-dihydroquinazolin-4(1H)-one]
0.794	Cc1cc(F)ccc1N1CN(c2ccc(=O)[nH]c2Cl)C(=O)c2ccc(C(F)(F)F)cc21 [drawing 292, 3-(2-chloro-6-oxo-1,6-dihydropyridin-3-yl)-1-(4-fluoro-2-methylphenyl)-7-(trifluoromethyl)-2,3-dihydroquinazolin-4(1H)-one]
0.01	Cc1cc(F)ccc1N1CN(c2ccc(=O)[nH]c2C)C(=O)c2cc(Cl)ccc21 [drawing 293, 6-chloro-1-(4-fluoro-2-methylphenyl)-3-(2-methyl-6-oxo-1,6-dihydropyridin-3-yl)-2,3-dihydroquinazolin-4(1H)-one]
5.01	Cc1[nH]c(=O)ccc1N1CN(c2ccc(F)cc2)c2ccccc2C1=O [drawing 294, 1-(4-fluorophenyl)-3-(2-methyl-6-oxo-1,6-dihydropyridin-3-yl)-2,3-dihydroquinazolin-4(1H)-one]
0.631	Cc1ccccc1N1CN(c2ccc(=O)[nH]c2C)C(=O)c2ccccc21 [drawing 295, 3-(2-methyl-6-oxo-1,6-dihydropyridin-3-yl)-1-(o-tolyl)-2,3-dihydroquinazolin-4(1H)-one]
0.0501	Cc1ccc2c(c1)C(=O)N(c1ccc(=O)[nH]c1C)CN2c1ccc(F)cc1C [drawing 296, 1-(4-fluoro-2-methylphenyl)-6-methyl-3-(2-methyl-6-oxo-1,6-dihydropyridin-3-yl)-2,3-dihydroquinazolin-4(1H)-one]
0.0631	Cc1cc(F)ccc1N1CN(c2ccc(=O)[nH]c2C)C(=O)c2ccccc21 [drawing 297, 1-(4-fluoro-2-methylphenyl)-3-(2-methyl-6-oxo-1,6-dihydropyridin-3-yl)-2,3-dihydroquinazolin-4(1H)-one]
0.00316	Cc1cc(F)ccc1N1CN(c2ccc(=O)[nH]c2C)C(=O)c2ccc(Br)cc21 [drawing 298, 7-bromo-1-(4-fluoro-2-methylphenyl)-3-(2-methyl-6-oxo-1,6-dihydropyridin-3-yl)-2,3-dihydroquinazolin-4(1H)-one]
0.0251	Cc1cc(F)ccc1N1CN(c2ccc(=O)[nH]c2C)C(=O)c2ccc(C#N)cc21 [drawing 299, 1-(4-fluoro-2-methylphenyl)-3-(2-methyl-6-oxo-1,6-dihydropyridin-3-yl)-4-oxo-1,2,3,4-tetrahydroquinazoline-7-carbonitrile]
0.251	Cc1cc(F)ccc1N1CN(c2ccc(=O)[nH]c2C#N)C(=O)c2ccc(C(F)(F)F)cc21 [drawing 300, 3-(1-(4-fluoro-2-methylphenyl)-4-oxo-7-(trifluoromethyl)-1,4-dihydroquinazolin-3(2H)-yl)-6-oxo-1,6-dihydropyridine-2-carbonitrile]
0.251	Cc1[nH]c(=O)ccc1N1CN(c2ccc(F)cc2F)c2cc(C(F)(F)F)ccc2C1=O [drawing 301, 1-(2,4-difluorophenyl)-3-(2-methyl-6-oxo-1,6-dihydropyridin-3-yl)-7-(trifluoromethyl)-2,3-dihydroquinazolin-4(1H)-one]
0.398	CCOc1ccc(N2CN(c3ccc(=O)[nH]c3C)C(=O)c3ccc(C(F)(F)F)cc32)cc1 [drawing 302, 1-(4-ethoxyphenyl)-3-(2-methyl-6-oxo-1,6-dihydropyridin-3-yl)-7-(trifluoromethyl)-2,3-dihydroquinazolin-4(1H)-one]
0.00316	Cc1cc(F)ccc1N1CN(c2ccc(=O)[nH]c2C)C(=O)c2ccc(OC(F)(F)F)cc21 [drawing 303, 1-(4-fluoro-2-methylphenyl)-3-(2-methyl-6-oxo-1,6-dihydropyridin-3-yl)-7-(trifluoromethoxy)-2,3-dihydroquinazolin-4(1H)-one]
0.00158	Cc1ccc2c(c1)N(c1ccc(F)cc1C)CN(c1ccc(=O)[nH]c1C)C2=O [drawing 304, 1-(4-fluoro-2-methylphenyl)-7-methyl-3-(2-methyl-6-oxo-1,6-dihydropyridin-3-yl)-2,3-dihydroquinazolin-4(1H)-one]
0.0126	Cc1cc(F)ccc1N1CN(c2ccc(=O)[nH]c2C)C(=O)c2cc(C(F)(F)F)ccc21 [drawing 305, 1-(4-fluoro-2-methylphenyl)-3-(2-methyl-6-oxo-1,6-dihydropyridine-3-yl)-6-(trifluoromethyl)-2,3-dihydroquinazolin-4(1H)-one]
0.501	Cc1cc(F)ccc1N1CN(c2cnc(=O)[nH]c2)C(=O)c2ccc(C(F)(F)F)cc21 [drawing 306, 1-(4-fluoro-2-methylphenyl)-3-(2-oxo-1,2-dihydropyrimidin-5-yl)-7-(trifluoromethyl)-2,3-dihydroquinazolin-4(1H)-one]

— patent US20230103791A1 (GLAXOSMITHKLINE INTELLECTUAL PROPERTY DEVELOPMENT LIMITED, priority 2019, published 2023)
